According to patent publication US5434165A, “Nootropic agents, compositions of, and method of use thereof” (Sanawa Kagaku Kenkyusho Company, Ltd., priority 1991, dated 1995):
pIC50: −log10 of the molar value. Read-outs that look alike come from different tables or passages of the source.

Legend:
[1] = molecular target: T1, 3H-Pirenzepine bonding to rat brain homogenate (Rattus norvegicus, UniProt P08482); assay: 3H-Pirenzepine bonding inhibition test, rat brain homogenate (Test Example 2); format: binding, SD male rat
T1 construct: to obtain a rat brain homogenate for testing; from tissue; host or cells: brain without cerebellum, SD male rat (homogenate, 1000×g supernatant)
T1 sequence (P08482 1-460): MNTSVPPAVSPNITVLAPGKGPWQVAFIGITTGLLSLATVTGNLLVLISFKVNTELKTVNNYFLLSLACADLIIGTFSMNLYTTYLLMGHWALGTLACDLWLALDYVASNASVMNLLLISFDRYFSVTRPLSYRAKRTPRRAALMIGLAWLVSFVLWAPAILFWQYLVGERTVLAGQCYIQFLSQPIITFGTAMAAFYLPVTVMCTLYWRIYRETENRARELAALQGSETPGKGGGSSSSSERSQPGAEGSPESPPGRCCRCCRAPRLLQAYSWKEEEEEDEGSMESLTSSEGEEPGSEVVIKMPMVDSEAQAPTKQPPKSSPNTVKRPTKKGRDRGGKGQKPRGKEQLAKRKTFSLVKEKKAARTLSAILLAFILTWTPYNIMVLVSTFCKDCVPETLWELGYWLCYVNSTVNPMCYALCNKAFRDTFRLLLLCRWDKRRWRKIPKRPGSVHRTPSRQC
Protocol: A rat brain homogenate was prepared according to the method of Yamamura and Synder (Proc. Nat. Acad. Sci. USA, Vol. 71, pp. 1725-1729 (1974)).
An SD male rat was sacrificed by decapitation, and the brain excised. After the cerebellum was removed, 0.32 M sucrose was added thereto in an amount 10 times the weight of the brain under ice cooling, followed by homogenizing in a Potter-Elvehjem glass homogenizer. The resulting homogenate was centrifuged at 1000×g for 10 minutes, the precipitate removed, and the supernatant further homogenized with a Polytron (manufactured by KINEMATICA) to obtain a rat brain homogenate for testing.
The method of Flynn and Mash (J. Pharm. Exp. Therm., Vol. 250, pp. 573-581 (1989)) was followed.
A mixture consisting of 0.035 ml of the above prepared rat brain homogenate (protein content: 0.6 mg), 1 ml of a 50 mM phosphoric acid buffer (pH 7.4) containing 2.0 nM ^3 H-pirenzepine, and 1 ml of a test compound dissolved in the same buffer was allowed to react at room temperature for 60 minutes. To the reaction mixture was added 3.0 ml of the same buffer as used above as cooled with ice, and the mixture was filtered through Whatman GF/B filter paper having been previously impregnated with a 0.1% polyethyleneimine solution for 60 minutes. The filter cake was washed twice with 3.0 ml of the same buffer, the filter paper taken out, an emulsion scintillator added, and the scintillation measured with a liquid scintillation counter to obtain a 50% inhibitory concentration (IC50) of the test compound on ^3 H-pirenzepine bonding to the rat brain homogenate.

[2] = tested on: scopolamine-induced inhibition of memory retention; assay: Passive avoidance learning test, scopolamine-induced memory retention defect (Test Example 1); format: in vivo, mice; settings: 5 min after scopolamine 0.25 mg/kg i.p., remembrance test after 24 h
Protocol: A passive avoidance learning test using mice was conducted to examine whether scopolamine-induced inhibition of memory retention can be improved by the compound of the present invention.
A training box composed of a light room and a dark room having the same structure was used. The dark room is designed so that a foot shock is given to a test animal via a grid of the floor. An opening is provided on the partitioning wall of the two rooms to let animals in and out freely.
Scopolamine hydrobromide dissolved in physiological saline was intraperitoneally administered to a mouse at a dose of 0.25 mg/kg.
Five minutes after the scopolamine administration, a test compound was intraperitoneally administered to the mouse at a dose shown in Table 1 below (test group).
The animal was put in the light room. Immediately after the animal moved into the dark room, a foot shock was given until the animal returned to the light room.
After 24 hours from the training, the animal was again put in the light room, and the time required for the animal's moving to the dark room was measured up to 300 seconds.
The data from the remembrance test were analyzed to obtain a percent prolongation of the memory retention time of the test group based on that of the control group having received no test compound.

male mouse = assay: Acute Toxicity Test (Test Example 3); format: in vivo; settings: 100 mg/kg i.p., 5-week-old male mouse
Protocol: The compound of Example 11, suspended in 5% gum arabic, was intraperitoneally achninistered to a 5-week-old […] male mouse. General manifestation of toxicity was observed over 60 minutes after the administration, and the animal's death was observed up to 24 hours from the administration.

[3] = 2.0 nM 3H-pirenzepine, pH 7.4, room temperature, 60 min, read-out: IC50 (50% inhibitory concentration on 3H-pirenzepine bonding)

| Compound | pIC50 [1, 3] | Percent Prolongation (of memory retention time vs control) ([2]; dose 1000 μg/kg i.p.) | pIC50 [1] | other results |
| --- | --- | --- | --- | --- |
| O=[N+]([O-])c1c2ccccc2c(NCC23CCCN2CCC3)c2ccccc12 [Example 19, 9-(1-Azabicyclo[3.3.0]octan-5-yl)methylamino-10-nitroanthracene] | 5.85 | – | – | – |
| O=[N+]([O-])c1ccc(NCC23CCCN2CCC3)c2ccccc12 [Example 11, 1-(1-Azabicyclo[3.3.0]octan-5-yl)methylamino-4-nitronaphthalene] | – | 152.6% | 6.05 | Percent Prolongation (of memory retention time vs control) ([2]; dose 1 μg/kg i.p.): 30.9%; Percent Prolongation (of memory retention time vs control) ([2]; dose 10 μg/kg i.p.): 91.7%; Percent Prolongation (of memory retention time vs control) ([2]; dose 100 μg/kg i.p.): 120.9%; general manifestation of toxicity (male mouse; observed over 60 minutes): neither general manifestation of toxicity nor death was observed; death (male mouse; observed up to 24 hours): neither general manifestation of toxicity nor death was observed |
| O=[N+]([O-])c1ccc(NCC23CCCN2CCC3)cc1 [Example 10, 1-(1-Azabicyclo[3.3.0]octan-5-yl)methylamino-4-nitrobenzene] | – | 26.5% | – | – |
| Nc1c2c(nc3ccccc13)CCCC2 [THA, 1,2,3,4-tetrahydro-9-aminoacridine, reference compound] | – | 74.8% | – | Percent Prolongation (of memory retention time vs control) ([2]; dose 100 μg/kg i.p.): 24.4% |
| O=[N+]([O-])c1cccc2c(NCC34CCCN3CCC4)cccc12 [Example 17, 1-(1-Azabicyclo[3.3.0]octan-5-yl)methylamino-5-nitronaphthalene] | – | – | 6.10 | – |
| CN(CC12CCCN1CCC2)c1ccc([N+](=O)[O-])c2ccccc12 [Example 15, 1[N-(1-Azabicyclo[3.3.0]octan-5-yl)methyl-N-methylamino]-4-nitronaphthalene] | – | – | 7.40 | Percent Prolongation (of memory retention time vs control) ([2]; dose 0.01 μg/kg i.p.): 111.6%; Percent Prolongation (of memory retention time vs control) ([2]; dose 0.1 μg/kg i.p.): 68.8%; Percent Prolongation (of memory retention time vs control) ([2]; dose 1 μg/kg i.p.): 85.2% |
| O=[N+]([O-])c1c(NCC23CCCN2CCC3)cnc2ccccc12 [Example 6, 3-(1-Azabicyclo[3.3.0]octan-5-yl)methylamino-4-nitroquinoline] | 5.92 | 55.1% | – | – |
| CN(CC12CCCN1CCC2)c1c([N+](=O)[O-])ccc2ccccc12 [Example 18, 1-[N-(1-Azabicyclo[3.3.0]octan-5-yl)methyl-N-methylamino]-2-nitronaphthalen] | 6.36 | – | – | Percent Prolongation (of memory retention time vs control) ([2]; dose 0.01 μg/kg i.p.): 117.9%; Percent Prolongation (of memory retention time vs control) ([2]; dose 0.1 μg/kg i.p.): 115.9% |
| CC(C)N(CCNc1ccc([N+](=O)[O-])c2ccccc12)C(C)C [Example 14, 1-(2-Diisopropylaminoethyl)amino-4-nitronaphthalene] | 6.05 | – | – | – |
